This experiment has as its target recombinant human S1P1 (Homo sapiens (Human), UniProt P21453). The experiment can be described thus: [32P]S1P competitive binding assay on cell membranes. Particulars: for IC50: read-out: S1P1 IC50 ± SD; for Fold decrease of S1P1 binding potency compared to 8c: vs 8c.
Setting [1] is: competition against [32P]S1P, membranes with recombinant human S1P1, mean ± SD.

Data on 17 molecules can be found in patent US10676467B2 (Washington University, priority 2017, dated 2020).

Broadly, the IC50 is the concentration at which inhibition is half-maximal.

Where two headings read alike, the source gives them in different places.

Chain of recombinant human S1P1 (P21453 whole entry): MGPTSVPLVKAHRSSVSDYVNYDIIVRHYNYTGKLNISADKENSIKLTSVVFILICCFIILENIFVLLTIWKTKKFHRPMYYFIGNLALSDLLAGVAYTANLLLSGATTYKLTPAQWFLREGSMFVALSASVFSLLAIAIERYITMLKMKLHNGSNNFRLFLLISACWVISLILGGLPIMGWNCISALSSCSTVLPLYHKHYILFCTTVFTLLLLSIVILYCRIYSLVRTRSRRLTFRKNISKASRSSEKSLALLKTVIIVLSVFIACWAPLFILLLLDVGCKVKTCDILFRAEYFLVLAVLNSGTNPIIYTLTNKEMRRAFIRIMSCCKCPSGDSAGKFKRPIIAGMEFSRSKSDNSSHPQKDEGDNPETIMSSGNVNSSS
Experimental: Competitive binding was performed for 60 min at room temperature and terminated by collecting the membranes onto 96-well glass fiber (GF/B) filtration plates (Millipore, Billerica, Mass.). Each filter was washed with 200 μL of assay buffer for five times. The filter bound radionuclide was measured by a Beckman LS3801 scintillation counter using Cherenkov counting. The reported IC50 values were calculated using the 4 parameter equation, least-square non-linear regression curve-fit, with GraphPad Prism software (GraphPad Software, Inc). Each assay was repeated at least three times with duplicate wells for each compound; the reported values (mean±SD, nM) are calculated from the average of all assays.

With `OCc1ccc(-c2noc(-c3ccc(OCCF)cc3)n2)cc1` [Compound 8a, (4-(5-(4-(2-Fluoroethoxy)phenyl)-1,2,4-oxadiazol-3-yl)phenyl)methanol], the IC50 under setting [1] was greater than 1000 nM. As for `N#Cc1cc(-c2nc(-c3ccc(CO)cc3)no2)ccc1OCCF` [Compound 8b], the “Fold decrease of S1P1 binding potency compared to 8c” value is given as 2 fold. Also, the IC50 under setting [1] was determined as 15.4 ± 3.8 nM. Turning to `OCCNCc1ccc(-c2noc(-c3ccc(OCCF)c(C(F)(F)F)c3)n2)cc1` [Compound 8e], the IC50 under setting [1] is 59.6 nM. Same read-out and setting: under `CN(CCO)Cc1ccc(-c2noc(-c3ccc(OCCF)c(C(F)(F)F)c3)n2)cc1` [Compound 8f, 2-((4-(5-(4-(2-Fluoroethoxy)-3-(trifluoromethyl)phenyl)-1,2,4-oxadiazol-3-yl)benzyl)(methyl)amino)ethan-1-ol] stands 48.2 nM; under `CN(Cc1ccc(-c2noc(-c3ccc(OCCF)c(C(F)(F)F)c3)n2)cc1)CC(O)CO` (stereo not shown) [Compound 8g], 38 nM. On to `OCC(O)c1ccc(-c2noc(-c3ccc(OCCF)c(C(F)(F)F)c3)n2)cc1` (stereo not shown) [Compound 8k], for which the “Fold decrease of S1P1 binding potency compared to 8c” value is reported as 4 fold. Besides, under setting [1], the IC50 was 23.8 nM.

For the molecule `OCC(CO)NCc1ccc(-c2noc(-c3ccc(OCCF)c(C(F)(F)F)c3)n2)cc1` [Compound 10a, 2-((4-(5-(4-(2-Fluoroethoxy)-3-(trifluoromethyl)phenyl)-1,2,4-oxadiazol-3-yl)benzyl)amino)propane-1,3-diol], the IC50 under setting [1] came to 87.2 ± 17.7 nM. Regarding `OCC1CN(Cc2ccc(-c3noc(-c4ccc(OCCF)c(C(F)(F)F)c4)n3)cc2)C1` [Compound 10b], the IC50 is greater than 100 nM. For the same molecule, the IC50 (competition against [32P]S1P, membranes with recombinant human S1P1, mean ± SD, listed as TZ-48-16) is 125 ± 27 nM. On to `OCCOCCOCCOCc1ccc(-c2noc(-c3ccc(OCCF)c(C(F)(F)F)c3)n2)cc1` [Compound 12c], for which the IC50 under setting [1] worked out at 106 nM. The same measure, in the same setting: under `OCCOCCOCCOCCOCc1ccc(-c2noc(-c3ccc(OCCF)c(C(F)(F)F)c3)n2)cc1` [Compound 12d, 1-(4-(5-(4-(2-Fluoroethoxy)-3-(trifluoromethyl)phenyl)-1,2,4-oxadiazol-3-yl)phenyl)-2,5,8,11-tetraoxatridecan-13-ol] stands 125 ± 22 nM; under `OCCNCCOCc1ccc(-c2noc(-c3ccc(OCCF)c(C(F)(F)F)c3)n2)cc1` [Compound 12f], 75.6 nM; under `CN(CCO)CCOCc1ccc(-c2noc(-c3ccc(OCCF)c(C(F)(F)F)c3)n2)cc1` [Compound 12g], 130 nM. Take `NC(=O)c1ccc(-c2noc(-c3ccc(OCCF)c(C(F)(F)F)c3)n2)cc1` [Compound 19b, 4-(5-(4-(2-Fluoroethoxy)-3-(trifluoromethyl)phenyl)-1,2,4-oxadiazol-3-yl)benzamide]: the IC50 (competition against [32P]S1P, membranes with recombinant human S1P1, mean ± SD, listed as TZ-43-77) came to 67 ± 12.6 nM. Regarding `CS(=O)(=O)NCc1ccc(-c2noc(-c3ccc(OCCF)c(C(F)(F)F)c3)n2)cc1` [Compound 19c, N-(4-(5-(4-(2-Fluoroethoxy)-3-(trifluoromethyl)phenyl)-1,2,4-oxadiazol-3-yl)benzyl)methanesulfonamide], the IC50 (competition against [32P]S1P, membranes with recombinant human S1P1, mean ± SD, listed as TZ-43-102) turned out to be 40 ± 17.8 nM. Regarding `O=C(O)c1ccc(-c2noc(-c3ccc(OCCF)c(C(F)(F)F)c3)n2)cc1` [Compound 20a, 4-(5-(4-(2-Fluoroethoxy)-3-(trifluoromethyl)phenyl)-1,2,4-oxadiazol-3-yl)benzoic acid], under setting [1], the IC50 is greater than 1000 nM.

For the molecule `O=C(NO)c1ccc(-c2noc(-c3ccc(OCCF)c(C(F)(F)F)c3)n2)cc1` [Compound 20b, 4-(5-(4-(2-Fluoroethoxy)-3-(trifluoromethyl)phenyl)-1,2,4-oxadiazol-3-yl)-N-hydroxybenzamide], under setting [1], the IC50 came out at 272 ± 65 nM. Further, where the note is “vs 19b”, the “Fold increased S1P1 IC50 compared to 19b” value is 4 fold.

Turning to `O=C(O)c1cn(Cc2ccc(-c3noc(-c4ccc(OCCF)c(C(F)(F)F)c4)n3)cc2)nn1` [Compound 22a, 1-(4-(5-(4-(2-Fluoroethoxy)-3-(trifluoromethyl)phenyl)-1,2,4-oxadiazol-3-yl)benzyl)-1H-1,2,3-triazole-4-carbox-ylic acid], the IC50 stood at 341 nM. Also, the “Fold increased S1P1 IC50 compared to compound 4” value (vs compound 4 (2.6 nM)) stood at 130 fold.
